From the supplement of paper PMC10331698
± gives the standard deviation of the averaged measurements.

Experiments:
Test in all cases: level (log10 ratio to DMSO vehicle control); higher = higher biomarker level / cell amount than vehicle control
Conditions in all cases: in DMSO
[1] = compound: C=C(C)C(=O)OCCC(F)(F)C(F)(F)C(F)(F)C(F)(F)C(F)(C(F)(F)F)C(F)(F)F [(Perfluoro-5-methylhexyl)ethyl 2-methylprop-2-enoate]
Experimental: (§1)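 BioMAP Diversity Plus panel of 12 human primary cell co-culture systems (3C, 4H, LPS, SAg, BT, BF4T, BE3C, CASM3C, HDF3CGF, KF3CT, MyoF, Mphg). Compounds were added 1 h before stimulation and left for 24 h (MyoF 48 h; BT 72 h for soluble read-outs or 6 d for IgG). Biomarkers were read by ELISA, cytotoxicity by SRB, PBMC viability and proliferation by Alamar Blue. Each well value was divided by the mean of 8 DMSO control wells on the same plate and log10 transformed; duplicate blinded samples were tested at 4 concentrations.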

[2] = compound: C=CC(F)(F)C(F)(F)C(F)(F)C(F)(F)C(F)(F)C(F)(F)C(F)(F)C(F)(F)C=C [1,8-Divinylperfluorooctane]
Experimental: as §1

[3] = compound: FC(F)C(F)(F)COCC1CO1 [((2,2,3,3-Tetrafluoropropoxy)methyl)oxirane]
Experimental: as §1

Heptafluorobutyramide = compound: NC(=O)C(F)(F)C(F)(F)C(F)(F)F [Heptafluorobutyramide]
Experimental: as §1

Pentafluoropropionamide = compound: NC(=O)C(F)(F)C(F)(F)F [Pentafluoropropionamide]
Experimental: as §1

[4] = compound: NCC(F)(F)C(F)(F)C(F)(F)C(F)(F)C(F)(F)C(F)(F)C(F)(F)F [1H,1H-Perfluorooctylamine]
Experimental: as §1

[5] = compound: O=C(O)C(F)(F)OC(F)(F)C(F)(F)OC(F)(F)F [Perfluoro-3,6-dioxaheptanoic acid]
Experimental: as §1

Test System | level (log10) ([1]; 6700 nM) | level (log10) ([1]; 20000 nM) | level (log10) ([2]; 6700 nM) | level (log10) ([2]; 20000 nM) | level (log10) ([3]; 6700 nM) | level (log10) ([3]; 20000 nM) | level (log10) ([3]; 60000 nM) | level (log10) (Heptafluorobutyramide; 6700 nM) | level (log10) (Heptafluorobutyramide; 20000 nM) | level (log10) (Heptafluorobutyramide; 60000 nM) | level (log10) (Pentafluoropropionamide; 6700 nM) | level (log10) (Pentafluoropropionamide; 20000 nM) | level (log10) (Pentafluoropropionamide; 60000 nM) | level (log10) ([4]; 6700 nM) | level (log10) ([4]; 20000 nM) | level (log10) ([4]; 60000 nM) | level (log10) ([5]; 6700 nM) | level (log10) ([5]; 20000 nM) | level (log10) ([5]; 60000 nM)
MyoF:Collagen III | -0.0135 ± 0.052 | -0.0455 ± 0.04 | -0.02 ± 0.0071 | -0.0115 ± 0.012 | -0.0045 ± 0.0035 | -0.0105 ± 0.005 | -0.005 | -0.0025 ± 0.0092 | 0.0025 ± 0.011 | -0.004 ± 0.02 | 0.002 ± 0.031 | -0.005 ± 0.0014 | -0.007 ± 0.0057 | -0.007 ± 0.0057 | 0.003 ± 0.014 | 0.01 | -0.025 ± 0.0014 | -0.001 ± 0.017 | 0.027 ± 0.038
lMphg:sIL-10 | 0.0215 ± 0.029 | -0.0195 ± 0.12 | -0.053 ± 0.085 | -0.0135 ± 0.03 | -0.087 ± 0.024 | -0.043 ± 0.027 | 0.0075 ± 0.018 | 0.002 ± 0.05 | -0.0445 ± 0.071 | -0.011 ± 0.058 | -0.0095 ± 0.044 | -0.01 ± 0.028 | -0.0635 ± 0.12 | -0.067 ± 0.14 | -0.002 ± 0.082 | -0.022 ± 0.04 | -0.0215 ± 0.0035 | 0.0045 ± 0.012 | -0.108 ± 0.044
3C:CD54/ICAM-1 | -0.009 ± 0.0014 | -0.01 ± 0.0071 | -0.0005 ± 0.0064 | 0.0095 ± 0.0021 | -0.008 ± 0.034 | -0.017 ± 0.025 | -0.002 ± 0.0099 | -0.023 ± 0.02 | -0.008 ± 0.0014 | -0.019 ± 0.016 | 0.0035 ± 0.0035 | -0.0105 ± 0.016 | 0.008 ± 0.014 | -0.0105 ± 0.028 | -0.0125 ± 0.039 | -0.015 ± 0.025 | -0.0325 ± 0.0064 | -0.0165 ± 0.019 | 0.0035 ± 0.005
HDF3CGF:CXCL8/IL-8 | -0.004 ± 0.0042 | 0.0025 ± 0.005 | -0.0095 ± 0.0021 | -0.002 ± 0.0085 | -0.0145 ± 0.016 | -0.004 ± 0.0014 | 0.005 ± 0.0085 | -0.003 ± 0.0057 | 0.002 ± 0.0014 | 0.0045 ± 0.012 | -0.006 ± 0.0057 | -0.0105 ± 0.00071 | -0.0065 ± 0.013 | -0.0025 ± 0.005 | -0.018 ± 0.0099 | -0.002 ± 0.0042 | -0.004 ± 0.013 | 0.0015 ± 0.005 | 0.0185 ± 0.016
